The text below walks through data of patent publication US5124083A, “3-substituted and 3,3-disubstituted 4-oxoretinoic acids and their esters” (Southern Research Institute, priority 1990, dated 1992).

Data set [1] has as its system tracheas obtained from vitamin A-deficient hamsters. The following applies: value taken from Newton et al.; read-out: ED50, hamster trachea organ culture assay; cited from earlier work.
For another data set, the system named is mammary carcinogenesis. The following applies: rats; Moon et al.; cited from earlier work.
The next data set relates to certain neoplastic cells. Conditions: literature; cited from earlier work.
For data set [2], the system named is pre-neoplastic and malignant epithelial lesions. Conditions: literature; cited from earlier work.
The test system of data set [3] is tracheas obtained from vitamin A-deficient hamsters. Nature of the data set: Hamster trachea organ culture assay (reversal of squamous metaplasia and keratinization). It counts as cell-based. The method, then:
Some of these 4-oxoretinoic acid analogues were evaluated in the hamster-trachea organ-culture assay described in Clamon et al., Nature, Vol. 250, pages 64-66, 1974; Sporn et al., Nature, Vol. 263, pages 110-113, 1976; and Newton et al., Cancer Res., Vol. 40, pages 3413-3425, 1980. This bioassay is specific for retinoids and assesses the capacity of retinoids to reverse keratinization in vitamin A-deficient hamster trachea in culture. Therefore, it is a measure of the capacity of a retinoid to control differentiation of epithelial cells, and "it is believed to have significant predictive value for the potential use of a new retinoid for prevention of epithelial cancer" (Newton et al., Cancer Res., Vol. 40, pages 3413-3425, 1980). (See Example 25). Also, data obtained by Newton et al., (Cancer Res., Vol. 40, pages 3413-3425, 1980) in assays of six all-trans or 13-cis retinamides are included in Table II for comparison.
Hamster Trachea Organ Culture Assay
4-Oxoretinoids were evaluated for their capacity to reverse squamous metaplasia and keratinization in organ cultures of tracheas obtained from vitamin A-deficient hamsters. The methods and procedures were those described by Sporn and co-workers (Clamon et al. and Newton et al., loc. cit.).

The test system of data set [4] is F9 Embryonal Carcinoma Cells. Nature of the data set: Induction of differentiation of F9 embryonal carcinoma cells (plasminogen activator release). It counts as cell-based. The following applies: Mus musculus, 96 h; molar concentration causing 50% induction of differentiation, by release of plasminogen activator; 4 days; read-out: Differentiation of F9 Embryonal Carcinoma Cells ED50. The method, then:
Induction of differentiation of cancer cells is a potential mode of cancer chemoprevention. […] Elevated release of plasminogen activator by F9 cells in the presence of retinoids is a marker for differentiation. Induction of differentiation of F9 cells by several of the retinoids of this invention was evaluated, and the results are summarized in Table I (Example 24) as values of ED50. All of the tested 4-oxoretionoic acid analogues induce differentiation at low concentrations (ED50 =[…] -10^-10 molar) and, therefore, are very effective inducers of differentiation of mouse F9 embryonal carcinoma cells. […] Under the conditions of this assay, ester derivatives might be hydrolyzed partially to the carboxylic acids.
Assay for Induction of Differentiation of Cancer Cells to Normal Cells
Evaluation of the differentiation potential of 4-oxoretinoids was carried out with an embryonal carcinoma cell line, F9. Elevation of plasminogen activator release by F9 cells in the presence of retinoids is a marker for inducing differentiation into parietal endoderm (Strickland and Mahdavi, loc. cit.; Strickland and Sawey, loc. cit.). F9 cells were grown at a density of 1×10^5 cells/mL in the presence or absence of […], 10^-8, 10^-9, 10^-10, and 10^-11 or molar retinoids for 4 days. Aliquots (20 μL) of the harvest fluid were mixed with 0.13 μM plasminogen, 0.3 mM H-D-Val-Leu-Lys-p-nitroaniline (a synthetic substrate of plasmin), 0.1% Tween 80, and 25 μg of fibrinogen fragments in a final volume of 0.2 mL of Tris-HCl, pH 7.5. After incubation for 4 hours at 25° C., the generation of p-nitroaniline was measured by absorbance at 405 nm. The average absorbencies from duplicate experiments were plotted (semilog plots) versus concentration (molarity). The ED50 values were determined by finding the midpoint between the maximal and minimal absorbance values.
Induction of Differentiation of Cancer Cells
^a ED50 is the molar concentration of the retinoid that causes
50% induction of differentiation of the carcinoma cells as measured by th
release of plasminogen activator.

The next data set relates to ornithine decarboxylase. Nature of the data set: Ornithine decarboxylase assay (reduction of TPA-induced ODC activity in mouse skin). The following applies: TPA-induced ODC, mouse skin; nanomoles of carbon dioxide per milligram of protein per half hour. It counts as in vivo. From the text: A bioassay in vivo for activity in the prevention of carcinogen-induced cancer is based on the reduction by a retinoid of the amount of ornithine decarboxylase (ODC) induced in mouse skin by the tumor promoter 12-O-tetradecanoylphorbol 13-acetate (TPA). Verma et al. (Cancer Research, Vol. 38, pages 793-801, 1978), reported that "application of the potent tumor-promoting agent 12-O-tetradecanoylphorbol 13-acetate (TPA) to mouse skin leads to a rapid and transient induction of epidermal ornithine decarboxylase activity". They state, further, that "inhibition of this enzyme activity by retinoids may be a simple and rapid in vivo test for assessing the potential prophylactic activity of new synthetic retinoids". All of the tested 4-oxoretinoid analogues reduced TPA-induced ODC activity. The compounds of Examples 2-4, 8, 11, 17, 18, and 20-23 reduced ODC activity to 22-47% of the ODC activity in the control mice and are, therefore, very active in this assay for cancer chemopreventive activity.
Ornithine Decarboxylase Assay
Assays for the reduction by 4-oxoretinoids of ornithine decarboxylase activity induced by 12-O-tetradecanoylphorbol 13-acetate (TPA) were performed by the procedure of Verma et al., Cancer Research, Vol. 38, pages 793-801 (1978).

Another data set relates to skin papillomas. Nature of the data set: Mouse antipapilloma assay (DMBA-TPA skin papillomas). It counts as in vivo. The following applies: DMBA-initiated, TPA-promoted mouse skin. Further details: Average Number of Skin Papillomas/Mouse as % of No. of Papillomas/Mouse in the DMBA-TPA Control Group of Mice: concentration or dose not given beside the values. The text has this:
Application of the carcinogen DMBA to mouse skin followed by application of the tumor promoter TPA causes the formation of papillomas. Certain retinoids applied to the same area of mouse skin reduce or prevent papilloma formation (e.g. H. Mayer, W. Bollag, R. Hanni, and R. Ruegg, Experientia, Vol 34, pages 1105-1119, 1978; R. K. Boutwell and A. K. Verma, Pure and Applied Chemistry, Vol. 51, pages 857-866, 1979). The antipapilloma assay is a direct test of the capability of a retinoid to prevent tumor formation in vivo. It has been used to select retinoids for clinical development. The tested retinoids reduced papilloma formation to 27-83% of papilloma formation in untreated control mice. […] The number of papillomas in mice treated with either of these six retinoids was 27-40% of the number of papillomas on untreated mice; or, differently expressed, papilloma formation was reduced by 60-73%.
In this assay, tumors are initiated in mice by applying the carcinogen DMBA to the skin of mice and subsequently applying the promoter TPA. The method is that of Verma et al., Cancer Research, Vol. 39, pages 419-425, 1979.

The conditions of data set [5]: Roberts and Frolik, Roberts et al.; cited from earlier work.

Read-outs that look alike come from different tables or passages of the source.

On to `CC1=C(/C=C/C(C)=C/C=C/C(C)=C\C(=O)NCCO)C(C)(C)CCC1` [13-Cis-N-(2-hydroxyethyl)-retinamide], for which the EC50 in data set [1] is 0.3 nM.
Consider `CC1=C(/C=C/C(C)=C/C=C/C(C)=C\C(=O)Nc2ccc(O)cc2)C(C)(C)CCC1` [13-Cis-N-(4-hydroxyphenyl)-retinamide], for which the EC50 in data set [1] was more than 1 nM. The “Suppression of mammary carcinogenesis” value in the data set on mammary carcinogenesis was “suppress mammary carcinogenesis in rats”.
For the compound `CCNC(=O)\C=C(C)/C=C/C=C(C)/C=C/C1=C(C)CCCC1(C)C` [13-Cis-N-ethylretinamide], the EC50 in [1] is 0.3 nM.
As for `CC1=C(/C=C/C(C)=C/C=C/C(C)=C\C(=O)O)C(C)(C)CCC1` [13-cis-retinoic acid], in the data set with certain neoplastic cells, the “Induction of differentiation of certain neoplastic cells to terminally differentiated cells” value is given as “highly active inducers of differentiation”. The “Prophylactic effect on development of pre-neoplastic and malignant epithelial lesions” value in [2] is listed as “exert a prophylactic effect”.
With `CC1=C(/C=C/C(C)=C/C=C/C(C)=C/C(=O)NCCO)C(C)(C)CCC1` [All-trans-N-(2-hydroxyethyl)-retinamide], in data set [1], the EC50 is 0.1 nM.
Take `CC1=C(/C=C/C(C)=C/C=C/C(C)=C/C(=O)Nc2ccc(O)cc2)C(C)(C)CCC1` [All-trans-N-(4-hydroxyphenyl)-retinamide]: in data set [1], the EC50 is 0.3 nM. Also, the “Suppression of mammary carcinogenesis” value in the data set on mammary carcinogenesis is on record as “suppress mammary carcinogenesis in rats”.
On to `CCNC(=O)/C=C(C)/C=C/C=C(C)/C=C/C1=C(C)CCCC1(C)C` [All-trans-N-ethylretinamide], for which the EC50 in [1] is 1 nM.
Turning to `C#CCC1CC(C)(C)C(/C=C/C(C)=C/C=C/C(C)=C/C(=O)O)=C(C)C1=O` (stereo not drawn) [Example 20], the EC50 in data set [3] (Mesocricetus auratus, reversal of keratinization, vitamin A-deficient hamster trachea in culture, read-out: ED50, hamster trachea organ culture assay) is 0.2 nM; in data set [4] it was 0.6 nM. Also, the “Activity in hamster-trachea assay compared with the retinamides of Table II” value in [3] (compared with retinamides in lower part of Table II) is given as “comparable”. Also, the “Ornithine Decarboxylase Activity, Average % of Control Group” value with ornithine decarboxylase is listed as 47 % of Control Group. In addition, in the data set with skin papillomas, the “Average Number of Skin Papillomas/Mouse as % of No. of Papillomas/Mouse in the DMBA-TPA Control Group of Mice” value came out at 64%.
In the case of `CC1=C(/C=C/C(C)=C/C=C/C(C)=C/C(=O)O)C(C)(C)CCC1=O` [all-trans-4-oxoretinoic acid], the Metabolite identity entry in data set [5] is recorded as “one of the metabolites of all-trans-retinoic acid”.
Regarding `CC1=C(/C=C/C(C)=C/C=C/C(C)=C/C(=O)O)C(C)(C)CCC1` [all-trans-retinoic acid], the “Induction of differentiation of certain neoplastic cells to terminally differentiated cells” value with certain neoplastic cells was “highly active inducers of differentiation”. Moreover, the “Prophylactic effect on development of pre-neoplastic and malignant epithelial lesions” value in data set [2] is on record as “exert a prophylactic effect”.
